Assay results published in US20120315654A1, “COMPOSITIONS AND METHODS FOR DETECTING CARDIOTOXICITY” (DUKE UNIVERSITY, priority 2011, published 2012).

Key:
HL-1 cells [1] = assay: Quantification of Cr and high-energy phosphates in HL-1 extracts by LC-MS/MS; conditions: HL-1, 100 nmol/L DOX, 24 hrs
cell-surface CrT protein = assay: Cell-surface CrT protein by biotin labeling, avidin isolation and Western blot (4B9); assay type: cell-based, human; conditions: HL-1 cultures, 100 nmol/L DOX
Description: HL-1 cells expressing CrT protein were lysed in an ice-cold solution of 150 mmol/L NaCl; 1% Triton X-100; and 50 mmol/L Tris-HCl, pH 7.4, supplemented with protease (COMPLETE MINI protease inhibitors, ROCHE, Indianapolis, Ind.) and phosphatase inhibitors (5 mmol/L NaF; 1 mmol/L phenylmethylsulphonylfluoride; 2.5 mmol/L Na2P2O7; 50 mmol/L β-glycerol; and 1 mmol/L […], Sigma). Insoluble material was separated by centrifugation at 100,000×g for 30 min at 4° C. Solubilized protein (25 μg per lane) was mixed with Laemmli buffer containing 10% β-mercaptoethanol, separated by SDS-PAGE on a 7% gel for studies of the CrT, and then transferred to nitrocellulose membranes. […] The TATA box-binding protein band was used as a loading control and was detected using a mouse monoclonal antibody (ABCAM, Cambridge, Mass.). […] Protein abundance was quantitated by densitometry using the IMAGEJ application from NIH, and normalized to the signal obtained from CrT protein isolated from cells grown in normal culture media.
HL-1 cultures were grown in 75 cm^2 plates and transiently transfected as described for human CrT cDNA. […] Cell surface CrT protein fraction (biotinylated CrT) was then analyzed by Western blotting using an anti-CrT antibody as described above.

HL-1 cells [2] = assay: Caspase 3/7 apoptosis assay in HL-1 cells; assay type: cell-based, murine; conditions: HL-1, 100 nmol/L DOX, up to 48 hrs
Description: Apoptosis was measured using PROMEGA's CASPASE-GLO 3/7 ASSAY SYSTEM (PROMEGA). Briefly, attached cells in a single 24-well plate were washed 3 times with ice-cold PBS and resuspended in 500 μl of 1% TRITON-X100; 10% glycerol; 2 mmol/L EDTA; 137 mmol/L NaCl; and 20 mmol/L Tris, pH 8.0. A mixture of 25 μL of lysate and 25 μL of caspase 3/7-assay reagent was prepared, and sequential luminescent readings were taken every 15 min for 4 hrs. Peak signal readings were normalized to protein content and plotted.

COc1cccc2c1C(=O)c1c(O)c3c(c(O)c1C2=O)C[C@@](O)(C(=O)CO)C[C@@H]3O[C@H]1C[C@H](N)[C@H](O)[C@H](C)O1 [DOX, Doxorubicin]
ADP (HL-1 cells [1]): 0.50 ± 0.07 μmols/mg prot | AMP (HL-1 cells [1]): 0.26 ± 0.08 μmols/mg prot | ATP (HL-1 cells [1]): 0.60 ± 0.15 μmols/mg prot | Cr (HL-1 cells [1]): 23.01 ± 7.92 μmols/mg prot | PCr (HL-1 cells [1]): 5.94 ± 0.12 μmols/mg prot | Amount of CrT at the cell surface (cell-surface CrT protein): decreased | Apoptosis (caspase 3/7 activation) (HL-1 cells [2]): No increase
